For five compounds, IC50, EC50 and inhibition results are on record in ChEMBL document CHEMBL1135773, “Purine and pyrimidine (P2) receptors as drug targets” (J Med Chem, 2002).

Bounds are passed on as bounds.

One assay concerns the target P2X purinoceptor 7 (Rattus norvegicus, UniProt Q64663). As to the kind of experiment: The compound was evaluated for antagonist activity against P2X purinoceptor 7 (P2X7) in rat parotid acinar cells. In kind it is functional, cell-based.
Assay [1] has as its target T1, P2X purinoceptor 4 (Rattus norvegicus, UniProt P51577).
T1 sequence (P51577 whole entry): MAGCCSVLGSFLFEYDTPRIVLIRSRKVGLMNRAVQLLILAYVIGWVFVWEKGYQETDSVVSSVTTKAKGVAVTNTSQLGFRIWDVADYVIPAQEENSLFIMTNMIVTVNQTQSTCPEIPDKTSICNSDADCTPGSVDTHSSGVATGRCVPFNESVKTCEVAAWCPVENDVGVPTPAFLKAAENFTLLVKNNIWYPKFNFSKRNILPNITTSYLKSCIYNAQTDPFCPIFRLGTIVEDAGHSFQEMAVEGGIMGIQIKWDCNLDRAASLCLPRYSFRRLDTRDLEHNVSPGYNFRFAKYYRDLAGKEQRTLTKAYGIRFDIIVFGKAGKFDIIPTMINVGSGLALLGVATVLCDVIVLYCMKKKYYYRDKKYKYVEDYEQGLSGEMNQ
As to the kind of experiment: The compound was evaluated for antagonist activity against recombinant rat P2X purinoceptor 4 (P2X4) at 10 uM. The class given is functional.

Assay [2] deals with T2, P2X purinoceptor 1 (Rattus norvegicus, UniProt P47824).
T2 sequence (P47824 whole entry): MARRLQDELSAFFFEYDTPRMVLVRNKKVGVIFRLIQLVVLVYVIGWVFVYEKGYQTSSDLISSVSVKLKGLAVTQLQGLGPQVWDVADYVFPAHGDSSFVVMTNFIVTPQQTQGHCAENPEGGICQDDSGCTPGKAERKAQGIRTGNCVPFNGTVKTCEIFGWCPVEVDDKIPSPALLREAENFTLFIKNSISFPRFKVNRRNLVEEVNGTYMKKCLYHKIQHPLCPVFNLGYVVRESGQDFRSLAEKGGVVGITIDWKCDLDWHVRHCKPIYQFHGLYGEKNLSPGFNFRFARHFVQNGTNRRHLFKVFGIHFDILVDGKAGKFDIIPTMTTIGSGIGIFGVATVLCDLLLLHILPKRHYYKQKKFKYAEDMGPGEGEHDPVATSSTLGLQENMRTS
Put plainly: The compound was evaluated for antagonist activity against recombinant rat P2X purinoceptor 1 (P2X1). In kind it is functional.

Assay [3] addresses T1, P2X purinoceptor 4. Put plainly: Antagonist activity against recombinant rat P2X purinoceptor 4 (P2X4) at 3 uM, expressed in Xenopus oocytes. The class given is functional, cell-based, Oocyte.
A further assay addresses T3, P2X purinoceptor 5 (Rattus norvegicus, UniProt P51578).
T3 sequence (P51578 whole entry): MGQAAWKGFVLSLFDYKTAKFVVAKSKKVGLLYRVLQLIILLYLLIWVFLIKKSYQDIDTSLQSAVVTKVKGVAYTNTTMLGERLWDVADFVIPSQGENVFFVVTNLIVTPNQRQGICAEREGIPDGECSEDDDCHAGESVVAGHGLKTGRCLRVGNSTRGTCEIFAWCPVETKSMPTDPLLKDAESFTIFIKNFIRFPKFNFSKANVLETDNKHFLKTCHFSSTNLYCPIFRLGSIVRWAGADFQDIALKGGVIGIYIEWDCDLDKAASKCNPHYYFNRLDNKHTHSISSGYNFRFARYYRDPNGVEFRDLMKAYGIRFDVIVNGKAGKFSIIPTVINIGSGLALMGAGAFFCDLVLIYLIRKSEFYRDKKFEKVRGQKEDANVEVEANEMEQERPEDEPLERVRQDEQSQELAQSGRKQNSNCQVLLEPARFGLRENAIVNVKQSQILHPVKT
Put plainly: Antagonist activity against recombinant rat P2X purinoceptor 5 (P2X5). In kind it is functional.

For a further assay, the target named is P2X purinoceptor 6 (Rattus norvegicus, UniProt P51579). As to the kind of experiment: Antagonist activity against recombinant rat P2X purinoceptor 6 (P2X6 ). In kind it is functional.
Assay [4] deals with T4, P2X purinoceptor 2 (Rattus norvegicus, UniProt P49653).
T4 sequence (P49653 whole entry): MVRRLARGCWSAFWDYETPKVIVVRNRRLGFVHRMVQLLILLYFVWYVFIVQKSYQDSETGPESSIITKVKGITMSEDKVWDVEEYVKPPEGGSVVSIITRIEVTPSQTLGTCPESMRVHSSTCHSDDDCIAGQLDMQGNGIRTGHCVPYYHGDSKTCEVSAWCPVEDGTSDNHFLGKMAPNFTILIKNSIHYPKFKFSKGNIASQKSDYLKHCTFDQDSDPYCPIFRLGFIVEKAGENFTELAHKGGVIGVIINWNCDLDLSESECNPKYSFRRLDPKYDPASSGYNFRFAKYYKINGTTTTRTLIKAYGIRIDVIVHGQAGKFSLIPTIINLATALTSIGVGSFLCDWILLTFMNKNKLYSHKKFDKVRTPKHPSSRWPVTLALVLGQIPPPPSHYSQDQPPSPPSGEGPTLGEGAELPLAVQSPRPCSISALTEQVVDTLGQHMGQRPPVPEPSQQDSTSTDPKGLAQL
Put plainly: The compound was evaluated for antagonist activity against recombinant rat receptor P2X purinoceptor 2 (P2X2) at 30 uM, expressed in Xenopus oocytes. The class given is functional, cell-based, Oocyte.

The next assay deals with P2Y purinoceptor 2 (Homo sapiens, UniProt P41231). Put plainly: Evaluated for agonist activity against phospholipase C coupled recombinant human P2Y purinoceptor 2 (P2Y2). The class given is functional.
Another assay concerns the target T5, P2Y purinoceptor 11 (Homo sapiens, UniProt Q96G91).
T5 sequence (Q96G91 whole entry): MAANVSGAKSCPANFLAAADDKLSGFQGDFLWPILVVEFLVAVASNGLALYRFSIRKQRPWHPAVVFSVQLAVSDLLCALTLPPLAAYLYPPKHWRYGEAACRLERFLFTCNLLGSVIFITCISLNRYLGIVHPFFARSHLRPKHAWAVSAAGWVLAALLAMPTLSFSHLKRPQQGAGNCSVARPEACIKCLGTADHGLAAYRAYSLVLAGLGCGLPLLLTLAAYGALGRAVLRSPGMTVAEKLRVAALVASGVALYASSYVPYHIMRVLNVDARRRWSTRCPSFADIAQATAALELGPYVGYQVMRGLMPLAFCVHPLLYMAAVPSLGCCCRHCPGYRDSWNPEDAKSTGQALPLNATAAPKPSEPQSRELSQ
Put plainly: The compound was evaluated for antagonist activity against phospholipase C coupled human P2Y purinoceptor 11 (P2Y11). In kind it is functional.

A further assay addresses P2Y purinoceptor 12 (Rattus norvegicus, UniProt Q9EPX4). Put plainly: Antagonist activity against phospholipase C coupled rat P2Y purinoceptor 12 (P2Y12). The class given is functional.
Another assay has as its target P2Y purinoceptor 4 (Homo sapiens, UniProt P51582). Put plainly: The compound was evaluated for antagonist activity against phospholipase C coupled recombinant human P2Y purinoceptor 4 (P2Y4). In kind it is functional.
Another assay has as its target P2Y purinoceptor 6 (Homo sapiens, UniProt Q15077). Put plainly: The compound was evaluated for antagonist activity against phospholipase C coupled recombinant human P2Y purinoceptor 6 (P2Y6). The class given is functional. Particulars: concentration not given here.
The target of a further assay is P2Y purinoceptor 1 (Meleagris gallopavo, UniProt P49652). Put plainly: Evaluated for antagonist activity against phospholipase C coupled P2Y purinoceptor 1 (P2Y1) of turkey erythrocytes. The class given is functional.
Assay [5] deals with T2, P2X purinoceptor 1. Put plainly: The compound was evaluated for antagonist activity against recombinant rat P2X purinoceptor 1 (P2X1) at 1 uM, expressed in Xenopus oocytes. The class given is functional, cell-based, Oocyte.
Assay [6] concerns the target P2X purinoceptor 3 (Rattus norvegicus, UniProt P49654). Put plainly: The compound was evaluated for antagonist activity against recombinant rat P2X purinoceptor 3 (P2X3) at 3 uM, expressed in Xenopus oocytes. In kind it is functional, cell-based, Oocyte.
Assay [7] has as its target T6, P2X purinoceptor 4 (Homo sapiens, UniProt Q99571).
T6 sequence (Q99571 whole entry): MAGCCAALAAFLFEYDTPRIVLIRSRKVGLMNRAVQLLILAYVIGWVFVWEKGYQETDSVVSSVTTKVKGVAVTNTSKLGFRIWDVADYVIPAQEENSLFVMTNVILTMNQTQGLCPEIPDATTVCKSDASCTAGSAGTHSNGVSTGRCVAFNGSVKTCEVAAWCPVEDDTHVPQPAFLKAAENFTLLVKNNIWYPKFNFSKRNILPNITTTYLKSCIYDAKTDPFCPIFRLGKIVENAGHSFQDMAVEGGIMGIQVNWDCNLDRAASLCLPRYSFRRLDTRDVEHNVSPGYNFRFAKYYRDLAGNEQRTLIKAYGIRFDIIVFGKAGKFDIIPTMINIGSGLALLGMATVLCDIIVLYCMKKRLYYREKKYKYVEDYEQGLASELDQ
As to the kind of experiment: The compound was evaluated for antagonist activity against recombinant human P2X purinoceptor 4 (P2X4). The class given is functional.

Assay [8] concerns the target T7, P2X purinoceptor 3 (Homo sapiens, UniProt P56373).
T7 sequence (P56373 whole entry): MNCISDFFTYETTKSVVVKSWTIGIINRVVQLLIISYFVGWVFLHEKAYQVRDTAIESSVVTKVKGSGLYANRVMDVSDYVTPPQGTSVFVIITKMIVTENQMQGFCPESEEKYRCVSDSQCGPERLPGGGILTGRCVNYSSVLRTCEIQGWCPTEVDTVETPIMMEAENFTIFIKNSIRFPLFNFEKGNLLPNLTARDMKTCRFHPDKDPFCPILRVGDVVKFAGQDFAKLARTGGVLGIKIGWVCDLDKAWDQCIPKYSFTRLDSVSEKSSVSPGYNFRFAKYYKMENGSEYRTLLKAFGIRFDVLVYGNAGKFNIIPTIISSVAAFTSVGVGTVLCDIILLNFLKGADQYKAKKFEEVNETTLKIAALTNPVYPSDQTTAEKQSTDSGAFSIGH
As to the kind of experiment: The compound was evaluated for antagonist activity against recombinant human P2X purinoceptor 3 (P2X3 ). The class given is functional.

Assay [9] deals with T8, P2X purinoceptor 1 (Homo sapiens, UniProt P51575).
T8 sequence (P51575 whole entry): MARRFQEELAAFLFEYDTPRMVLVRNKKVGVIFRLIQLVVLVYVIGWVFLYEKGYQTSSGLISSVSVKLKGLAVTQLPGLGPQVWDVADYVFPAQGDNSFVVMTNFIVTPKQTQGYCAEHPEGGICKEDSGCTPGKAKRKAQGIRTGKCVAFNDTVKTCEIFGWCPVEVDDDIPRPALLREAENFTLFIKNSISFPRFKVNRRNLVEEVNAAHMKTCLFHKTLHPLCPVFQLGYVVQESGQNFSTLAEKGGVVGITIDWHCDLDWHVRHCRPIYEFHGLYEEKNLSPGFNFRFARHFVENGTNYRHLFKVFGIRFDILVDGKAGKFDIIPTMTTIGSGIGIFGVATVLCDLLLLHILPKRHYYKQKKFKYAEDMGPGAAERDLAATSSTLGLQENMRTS
Put plainly: The compound was evaluated for antagonist activity against recombinant human P2X purinoceptor 1 (P2X1 ). The class given is functional.

The target in assay [10] is T4, P2X purinoceptor 2. Put plainly: The compound was evaluated for antagonist activity against recombinant rat P2X purinoceptor 2 (P2X2) at 10 uM. In kind it is functional.

Chain of P2X purinoceptor 3 (Rattus norvegicus, UniProt P49654) (P49654 whole entry): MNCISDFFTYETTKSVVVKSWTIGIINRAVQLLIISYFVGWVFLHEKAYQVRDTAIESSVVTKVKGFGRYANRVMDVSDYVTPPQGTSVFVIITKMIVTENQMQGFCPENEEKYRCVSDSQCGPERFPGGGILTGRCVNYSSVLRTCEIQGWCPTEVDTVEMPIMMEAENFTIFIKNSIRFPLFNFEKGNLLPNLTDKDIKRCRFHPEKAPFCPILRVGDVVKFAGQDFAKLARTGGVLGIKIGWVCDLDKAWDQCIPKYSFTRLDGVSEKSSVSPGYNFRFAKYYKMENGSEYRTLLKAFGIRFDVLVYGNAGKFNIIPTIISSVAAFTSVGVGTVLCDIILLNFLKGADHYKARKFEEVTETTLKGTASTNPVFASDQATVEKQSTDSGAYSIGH
Chain of P2Y purinoceptor 6 (Q15077 whole entry): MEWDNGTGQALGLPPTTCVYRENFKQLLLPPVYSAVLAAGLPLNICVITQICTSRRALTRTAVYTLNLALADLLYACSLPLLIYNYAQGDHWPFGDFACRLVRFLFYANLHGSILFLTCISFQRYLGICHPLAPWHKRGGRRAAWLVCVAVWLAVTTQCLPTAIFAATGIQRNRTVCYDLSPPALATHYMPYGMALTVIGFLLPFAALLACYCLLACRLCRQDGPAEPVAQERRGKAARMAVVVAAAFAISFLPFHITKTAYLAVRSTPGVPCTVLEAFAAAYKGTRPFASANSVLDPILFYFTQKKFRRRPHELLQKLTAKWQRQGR
Chain of P2Y purinoceptor 1 (P49652 whole entry): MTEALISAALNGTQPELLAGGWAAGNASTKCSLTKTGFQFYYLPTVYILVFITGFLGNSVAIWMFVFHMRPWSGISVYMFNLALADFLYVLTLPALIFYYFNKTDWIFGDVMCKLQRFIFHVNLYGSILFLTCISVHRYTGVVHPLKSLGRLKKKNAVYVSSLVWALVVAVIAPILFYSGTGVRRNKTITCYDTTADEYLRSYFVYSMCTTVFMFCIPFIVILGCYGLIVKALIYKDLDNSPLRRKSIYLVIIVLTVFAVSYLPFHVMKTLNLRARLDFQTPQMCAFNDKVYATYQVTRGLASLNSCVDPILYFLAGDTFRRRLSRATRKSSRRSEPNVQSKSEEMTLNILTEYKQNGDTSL
Chain of P2Y purinoceptor 4 (P51582 whole entry): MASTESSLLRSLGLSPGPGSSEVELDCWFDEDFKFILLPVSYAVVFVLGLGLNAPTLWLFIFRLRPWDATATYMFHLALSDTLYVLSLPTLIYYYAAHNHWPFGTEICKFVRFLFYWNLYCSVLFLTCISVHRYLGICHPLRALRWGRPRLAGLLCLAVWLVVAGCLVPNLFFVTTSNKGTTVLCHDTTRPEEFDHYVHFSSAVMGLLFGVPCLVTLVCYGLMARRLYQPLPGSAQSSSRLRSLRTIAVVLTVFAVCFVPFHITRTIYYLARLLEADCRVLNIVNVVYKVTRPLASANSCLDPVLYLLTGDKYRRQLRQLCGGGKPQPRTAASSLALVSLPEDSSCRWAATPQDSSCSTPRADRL
Chain of P2X purinoceptor 7 (Q64663 whole entry): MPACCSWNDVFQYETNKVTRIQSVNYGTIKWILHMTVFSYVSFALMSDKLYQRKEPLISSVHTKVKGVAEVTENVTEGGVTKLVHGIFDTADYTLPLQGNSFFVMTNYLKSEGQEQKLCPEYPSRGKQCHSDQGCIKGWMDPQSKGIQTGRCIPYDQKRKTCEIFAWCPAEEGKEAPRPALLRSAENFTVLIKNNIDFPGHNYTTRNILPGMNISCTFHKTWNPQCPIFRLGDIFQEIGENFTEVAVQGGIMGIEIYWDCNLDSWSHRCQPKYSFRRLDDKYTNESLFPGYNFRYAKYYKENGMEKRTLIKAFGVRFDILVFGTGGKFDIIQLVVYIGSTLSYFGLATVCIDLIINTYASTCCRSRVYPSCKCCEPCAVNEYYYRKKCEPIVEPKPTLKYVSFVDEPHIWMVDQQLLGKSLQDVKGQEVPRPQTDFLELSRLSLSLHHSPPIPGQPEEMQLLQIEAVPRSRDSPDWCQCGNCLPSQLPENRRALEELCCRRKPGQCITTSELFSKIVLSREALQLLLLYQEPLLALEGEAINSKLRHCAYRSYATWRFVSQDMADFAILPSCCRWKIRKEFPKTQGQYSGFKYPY
Chain of P2X purinoceptor 6 (P51579 whole entry): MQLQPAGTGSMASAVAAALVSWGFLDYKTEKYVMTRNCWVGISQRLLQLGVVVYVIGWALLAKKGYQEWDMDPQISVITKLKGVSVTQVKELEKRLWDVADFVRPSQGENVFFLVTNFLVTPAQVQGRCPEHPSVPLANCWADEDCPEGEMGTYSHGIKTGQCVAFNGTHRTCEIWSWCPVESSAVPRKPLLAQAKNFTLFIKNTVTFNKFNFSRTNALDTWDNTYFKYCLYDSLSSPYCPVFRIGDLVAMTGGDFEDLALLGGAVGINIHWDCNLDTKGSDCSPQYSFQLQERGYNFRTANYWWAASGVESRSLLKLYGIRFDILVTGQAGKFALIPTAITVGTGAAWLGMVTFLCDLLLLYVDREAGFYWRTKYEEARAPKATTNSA
Chain of P2Y purinoceptor 2 (P41231 whole entry): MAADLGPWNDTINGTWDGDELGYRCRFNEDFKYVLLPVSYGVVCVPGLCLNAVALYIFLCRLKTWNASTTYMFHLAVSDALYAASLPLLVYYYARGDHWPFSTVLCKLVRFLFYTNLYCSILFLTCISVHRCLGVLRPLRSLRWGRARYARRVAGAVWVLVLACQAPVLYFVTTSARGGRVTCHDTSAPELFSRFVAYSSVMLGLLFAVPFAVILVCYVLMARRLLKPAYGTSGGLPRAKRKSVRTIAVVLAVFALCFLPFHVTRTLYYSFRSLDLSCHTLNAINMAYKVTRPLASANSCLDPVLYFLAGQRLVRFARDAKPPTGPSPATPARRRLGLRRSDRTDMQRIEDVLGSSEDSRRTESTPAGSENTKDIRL
Chain of P2Y purinoceptor 12 (Q9EPX4 whole entry): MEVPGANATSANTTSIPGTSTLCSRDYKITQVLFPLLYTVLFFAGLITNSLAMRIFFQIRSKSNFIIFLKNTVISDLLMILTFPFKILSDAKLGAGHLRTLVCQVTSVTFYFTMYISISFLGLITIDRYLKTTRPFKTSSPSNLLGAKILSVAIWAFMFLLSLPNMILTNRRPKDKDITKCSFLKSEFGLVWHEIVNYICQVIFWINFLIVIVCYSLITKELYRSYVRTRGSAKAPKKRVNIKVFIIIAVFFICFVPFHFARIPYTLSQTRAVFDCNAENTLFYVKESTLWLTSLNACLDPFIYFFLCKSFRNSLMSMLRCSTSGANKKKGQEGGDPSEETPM

With `O=S(=O)(O)c1cc(N=C=S)ccc1/C=C/c1ccc(N=C=S)cc1S(=O)(=O)O`, the IC50 – broadly, the concentration that inhibits the measured activity by half – against P2X purinoceptor 7 came out at 35 µM.
`Cc1ncc(COP(=O)(O)O)c(C=O)c1O` [PYRIDOXAL PHOSPHATE ANHYDROUS]: the EC50 (in general, the midpoint of the concentration-response curve) at P2X purinoceptor 4 [1] was determined as 219 µM; at P2X purinoceptor 1 [2] it was 3 µM.
On to `Cc1ccc(C(=O)Nc2ccc(S(=O)(=O)O)c3cc(S(=O)(=O)O)cc(S(=O)(=O)O)c23)cc1NC(=O)c1cccc(NC(=O)Nc2cccc(C(=O)Nc3cc(C(=O)Nc4ccc(S(=O)(=O)O)c5cc(S(=O)(=O)O)cc(S(=O)(=O)O)c45)ccc3C)c2)c1` [SURAMIN], for which the EC50 is more than 100 µM at P2X purinoceptor 4 [3]; 4 µM at P2X purinoceptor 5; more than 100 µM at P2X purinoceptor 6; 10.4 µM on P2X purinoceptor 2 [4]; 48 µM on P2Y purinoceptor 2; 16 µM at P2Y purinoceptor 11. Further, the EC50 is 4 µM on P2Y purinoceptor 12, more than 100 µM on P2Y purinoceptor 4, more than 10 µM at P2Y purinoceptor 1 and 1 µM at P2X purinoceptor 1 [5]. Besides, on P2Y purinoceptor 6, the inhibition (usually the drop in the measured response relative to a control, in per cent) came out at 27%.
Regarding `Cc1nc(/N=N/c2cc(CP(=O)(O)O)cc(CP(=O)(O)O)c2)c(COP(=O)(O)O)c(C=O)c1O`, the figures for the 50% effective concentration (EC50) on P2X purinoceptor 3 [6] and on P2X purinoceptor 1 [5] were 0.022 µM and 0.005 µM, respectively.
As for `O=C(Nc1cccc(C(=O)Nc2ccc(S(=O)(=O)O)c3cc(S(=O)(=O)O)cc(S(=O)(=O)O)c23)c1)Nc1cccc(C(=O)Nc2ccc(S(=O)(=O)O)c3cc(S(=O)(=O)O)cc(S(=O)(=O)O)c23)c1`, the IC50 on P2X purinoceptor 4 [7] is more than 100 µM; on P2X purinoceptor 3 [8], 28.5 µM; at P2X purinoceptor 1 [9], 0.21 µM; at P2X purinoceptor 2 [10], more than 50 µM.
